Data reported in ChEMBL document CHEMBL5042490, “Lead derivatization of ethyl 6-bromo-2-((dimethylamino)methyl)-5-hydroxy-1-phenyl-1H-indole-3-carboxylate and 5-bromo-2-(thiophene-2-carboxamido) benzoic acid as FabG inhibitors targeting ESKAPE pathogens” (Eur J Med Chem, 2022).

Columns and labels:
[1] = Inhibition of Pseudomonas aeruginosa FabG assessed as reduction in Acetoacetyl-coenzyme-A substrate in presence of NADPH preincubated for 5 mins followed by substrate addition and measured for 6 to 10 mins by spectrophotometric analysis
[2] = Inhibition of Salmonella typhimurium FabG assessed as reduction in Acetoacetyl-coenzyme-A substrate in presence of NADPH preincubated for 5 mins followed by substrate addition and measured for 6 to 10 mins by spectrophotometric analysis; set-up: species or system Salmonella enterica subsp. enterica serovar Typhimurium
[3] = Inhibition of Escherichia coli FabG assessed as reduction in Acetoacetyl-coenzyme-A substrate in presence of NADPH preincubated for 5 mins followed by substrate addition and measured for 6 to 10 mins by spectrophotometric analysis
[4] = Inhibition of Klebsiella pneumoniae FabG2 assessed as reduction in Acetoacetyl-coenzyme-A substrate in presence of NADH preincubated for 5 mins followed by substrate addition and measured for 6 to 10 mins by spectrophotometric analysis
[5] = Inhibition of Acinetobacter baumannii FabG assessed as reduction in Acetoacetyl-coenzyme-A substrate in presence of NADPH preincubated for 5 mins followed by substrate addition and measured for 6 to 10 mins by spectrophotometric analysis
[6] = Inhibition of Klebsiella pneumoniae FabG1 assessed as reduction in Acetoacetyl-coenzyme-A substrate in presence of NADPH preincubated for 5 mins followed by substrate addition and measured for 6 to 10 mins by spectrophotometric analysis
[7] = Inhibition of Staphylococcus aureus FabG assessed as reduction in Acetoacetyl-coenzyme-A substrate in presence of NADPH preincubated for 5 mins followed by substrate addition and measured for 6 to 10 mins by spectrophotometric analysis
[8] = Inhibition of Mycobacterium tuberculosis FabG assessed as reduction in Acetoacetyl-coenzyme-A substrate in presence of NADPH preincubated for 5 mins followed by substrate addition and measured for 6 to 10 mins by spectrophotometric analysis

SMILES | IC50 [1] | IC50 [2] | IC50 ([3]; read-out: IC50) [µM] | IC50 [4] | IC50 [5] | IC50 [6] | IC50 [7] | IC50 [3] | IC50 ([5]; read-out: IC50) [µM] | IC50 ([8]; read-out: IC50) [µM] | IC50 ([2]; read-out: IC50) [µM] | IC50 [8]
CCOC(=O)c1c(CSc2nc3ccccc3o2)n(C)c2cc(Br)c(O)cc12 | Not Active | Not Active | 18.6 | Not Active | Not Active | Not Active | Not Active | – | – | – | – | –
Cc1c(Br)cccc1C(=O)Nc1ccc(Br)cc1C(=O)O | Not Active | Not Active | – | Not Active | – | Not Active | Not Active | Not Active | 36.7 | – | – | –
O=C(CCBr)Nc1ccc(Br)cc1C(=O)O | Not Active | Not Active | – | Not Active | Not Active | Not Active | Not Active | Not Active | – | 78.3 | – | –
O=C(Nc1ccc(Br)cc1C(=O)O)c1cccc(I)c1 | Not Active | – | 21.6 | Not Active | – | Not Active | Not Active | – | 15.7 | 14.7 | 37.4 | –
O=C(O)c1cc(Br)ccc1NC(=O)c1cccnc1Cl | Not Active | – | 15.9 | Not Active | Not Active | Not Active | Not Active | – | – | – | 51 | –
CCOC(=O)c1c(CSc2nc3ccccc3s2)n(C)c2cc(Br)c(O)cc12 | Not Active | Not Active | 31.8 | Not Active | Not Active | Not Active | Not Active | – | – | – | – | –
CCOC(=O)c1c(CSc2nc3ccccc3s2)n(Cc2ccccc2)c2cc(Br)c(O)cc12 | Not Active | Not Active | 20.8 | Not Active | Not Active | Not Active | Not Active | – | – | – | – | Not Active
